Source: patent EP1656941A1, “Compositions for the treatment of diabetic nephropathy” (Clinigene International Private Limited, priority 2004, dated 2006)

Legend:
[1] = tested on: patients with type 1 diabetes mellitus and diabetic nephropathy; conditions: Lewis et. al. 1993; cited from earlier work
[2] = tested on: Diabetic rats; conditions: Utimura et. al. 2003, cited from earlier work
[3] = tested on: patients with diabetic nephropathy; assay: Estimated GFR by the Cockcroft - Gault formula; open-labeled, randomized three-arm study; assay type: in vivo, human
Description: A secondary end-point for this study was the GFR value obtained for each patient. This Secondary Endpoint included Estimated GFR, which was calculated using the following formulae: […]
Measurement of GFR Once all data was collected, Glomerular Filtration Rate GFR) was determined by the Cockcroft - Gault formula.
Estimated GFR(inml/min) = ([140−age(in years)∗weight(in Kg))/(Serum Creatinie level(inμmol/L)) [formula]
Estimated GFR(inml/min) = (1.23∗[140−age(in years)∗weight(in Kg))/(Serum Creatinie level(inμmol/L)) [formula]
(§1) Evaluation of the effects of MMF or ACE inhibitors alone or in combination on the status of proteinuria in patients with diabetic nephropathy was an open-labeled, randomized study. This study consisted of three arms as shown below. • 1. treatment with MMF alone • 2. treatment with combination of MMF and lisinopril • 3. treatment with lisinopril alone In addition, there were three phases of the study as shown below.
(§2) Phase 2: Treatment Phase (6 months): Every patient who qualified the screening phase was assigned one of the treatment arms. During this phase, patients were monitored closely and efficacy and safety parameters are assessed every month.
(§3) • 1. MMF: The dose of MMF given during the study was 500 mg per oral twice a day throughout the study. • 2. Lisinopril: The starting dose of lisinopril given in the study was 5 mg per oral twice a day. In case of hypertensive patients, the dose could be titrated upwards based on investigator's discretion, which in turn was based on the patient's "safety end point". • 3. MMF + Lisinopril: In the patients who received both the drugs, the dose of MMF was 500 mg per oral twice a day and lisinopril was 5 mg per oral twice a day. In the case of hypertensive patients, the dose of lisinopril could be titrated upwards based on investigator's discretion, which in turn was based on the patient's "safety end point".

[4] = tested on: patients with diabetic nephropathy; assay: 24-hour urine protein (proteinuria), Pyrogallol Red / SDS reagent method; open-labeled, randomized three-arm study; assay type: in vivo, human; design: 24h Urine protein (Mean) / Difference 24h Urine protein: unit not given here
Excerpt: The study of the effect of MMF and lisinopril for the treatment of diabetic nephropathy was designed in the following manner.
In this study, a total of 30 patients were planned of which 18 were randomized and subjected to enter into one of the studies in which the patient groups each received MMF alone, lisinopril alone, or a combination of both MMF and lisinopril.
The primary end-point for this study was the proteinuria value obtained from the patients via 24-hour urine protein which was measured using the Calorimetric method Pyrogallol Red / SDS liquid stable single reagent.
The inclusion of a patient is based on the following criteria. Type 1 and type 2 diabetic patients; male and postmenopausal (Natural & surgical) female diabetic patients; age 18-65 years; micral test positive (albumin excretion rate 20-200 µgm/min); patient must be able to swallow the oral medications to be used in the study; patient must sign an informed consent prior to the study.
The exclusion of a subject from the study is based on the following criteria: Premenopausal female patients of any age; clinical evidence of SLE; uncontrolled diabetes (Fasting Blood Glucose≥ 160 mg/dl or HbA1c ≥ 7.5%); uncontrolled hypertension (Systolic blood pressure ≥ 160 mm Hg and/or diastolic blood pressure ≥ 100 mm Hg); impaired renal function with serum creatinine ≥ 1.4 mg/dl; well-documented history of Henoch-Schonlein Purpura (with an exception to previous nonspecific abdominal pain or rash ― which is not an exclusion criteria); clinical evidence of cirrhosis or chronic active liver disease; abnormal laboratory values at the time of study entry; absolute neutrophil count (ANC) < […], or hematocrit (HCT) < 28%; AER > 200 µgm/min; BUN ≥ 25 mg/dl; known contraindication or allergy to the administration of MMF or lisinopril; history of significant gastrointestinal disorder, e.g. severe chronic diarrhea or active peptic ulcer disease; active systemic infection or history of serious infection within one month of entry; known infection with HIV, hepatitis B or hepatitis C; other major organ system disease or malignancy other than skin cancer fully excised more than 5 years prior to entry; current or prior treatment with MMF or azathioprine; current or recent (within 30 days) exposure to any investigational drug.
as §1
Phase 1: Screening Phase (Duration 1 to 4 weeks): 303 patients were screened on their first visit (V1), based on the given inclusion and exclusion criteria to determine if they were eligible for the study and to assess likelihood of compliance with study protocol. Micral test for every patient was done to determine the eligibility.
as §2
as §3, with “In the case of hypertensive patients, the dose of lisinopril could be titrated upwards based on investigator's discretion, which in turn was based on the patient's "safety end point".” left out

[5] = tested on: patients with IgA nephropathy; conditions: MMF 1-1.5g per day vs 30-40 mg of Prednisone per day; followed for seventy two weeks; preliminary report; cited from earlier work
[6] = Benefited patients, 1 month after treatment at V3, MMF 500 mg per oral twice a day
[7] = Benefited patients, 3 month after treatment at V4, MMF 500 mg twice daily
[8] = Benefited patients, V3 (1 month) versus baseline V2, MMF 500 mg per oral twice a day
[9] = Benefited patients, V4 (3 month) versus baseline V2, MMF 500 mg twice daily
[10] = Not benefited patients, 1 month after treatment at V3, MMF 500 mg per oral twice a day
[11] = Not benefited patients, 3 month after treatment at V4, MMF 500 mg twice daily
[12] = Not benefited patients, V3 (1 month) versus baseline V2, MMF 500 mg per oral twice a day
[13] = Benefited patients, 1 month after treatment at V3, lisinopril 5mg twice daily
[14] = Benefited patients, 3 month after treatment at V4, lisinopril 5mg twice daily
[15] = Benefited patients, 6 month after treatment at V5, lisinopril 5mg twice daily
[16] = Benefited patients, V3 (1 month) versus baseline V2, lisinopril 5mg twice daily
[17] = Benefited patients, V4 (3 month) versus baseline V2, lisinopril 5mg twice daily
[18] = Benefited patients, V5 (6 month) versus baseline V2, lisinopril 5mg twice daily
[19] = Not benefited patients, 1 month after treatment at V3, lisinopril 5mg twice daily
[20] = Not benefited patients, 3 month after treatment at V4, lisinopril 5mg twice daily
[21] = Not benefited patients, 6 month after treatment at V5, lisinopril 5mg twice daily
[22] = Not benefited patients, V3 (1 month) versus baseline V2, lisinopril 5mg twice daily
[23] = Not benefited patients, V4 (3 month) versus baseline V2, lisinopril 5mg twice daily
[24] = Not benefited patients, V5 (6 month) versus baseline V2, lisinopril 5mg twice daily

## C[C@H](CS)C(=O)N1CCC[C@H]1C(=O)O [Captopril]
[1]
  progression of renal disease: prevents or delays

## COc1c(C)c2c(c(O)c1C/C=C(\C)CCC(=O)OCCN1CCOCC1)C(=O)OC2 [MMF, mycophenolate mofetil]
[2]; 8 months
  albuminuria, glomerular macrophage infiltration and glomerulosclerosis: prevent
[2]
  effect on blood pressure, glomerular dynamics or blood glucose levels: no effect
[3]; [6]
  GFR (Mean): 89.3 mL/min
[3]; [7]
  GFR (Mean): 81.85 mL/min
[3]; [8]
  Difference GFR: 0.27 mL/min
[3]; [9]
  Difference GFR: -1.35 mL/min
[3]; [10]
  GFR (Mean): 75.26 mL/min
[3]; [11]
  GFR (Mean): 49.9 mL/min
[3]; [12]
  Difference GFR: 4.40 mL/min
[3]; Not benefited patients, V4 (3 month) versus baseline V2, MMF 500 mg twice daily
  Difference GFR: 49.9 mL/min
[4]; [6]
  24h Urine protein (Mean): 112.73
[4]; [7]
  24h Urine protein (Mean): 260.8
[4]; [8]
  Difference 24h Urine protein: -203.93
[4]; [9]
  Difference 24h Urine protein: -136.6
[4]; [10]
  24h Urine protein (Mean): 696.3
[4]; [11]
  24h Urine protein (Mean): 305.5
[4]; [12]
  Difference 24h Urine protein: 361.7
[4]; after 1 month of treatment (V3 vs V2), MMF 500 mg per oral twice a day
  reduced proteinuria in % of the patients: 67%
[4]; at V4 at the end of 3 months, 500 mg of MMF twice daily
  reduced proteinuria in % of the patients: 67%
[5]
  decreasing proteinuria, protecting renal function and also decreasing blood lipid levels: superior to Prednisone

## NCCCC[C@H](N[C@@H](CCc1ccccc1)C(=O)O)C(=O)N1CCC[C@H]1C(=O)O [lisinopril]
[3]; [13]
  GFR (Mean): 79.16 mL/min
[3]; [14]
  GFR (Mean): 89.55 mL/min
[3]; [15]
  GFR (Mean): 105.9 mL/min
[3]; [16]
  Difference GFR: -0.09 mL/min
[3]; [17]
  Difference GFR: 7.95 mL/min
[3]; [18]
  Difference GFR: 28.5 mL/min
[3]; [19]
  GFR (Mean): 63.97 mL/min
[3]; [20]
  GFR (Mean): 68.76 mL/min
[3]; [21]
  GFR (Mean): 76.4 mL/min
[3]; [22]
  Difference GFR: 1.91 mL/min
[3]; [23]
  Difference GFR: 0.13 mL/min
[3]; [24]
  Difference GFR: -9.4 mL/min
[4]; [13]
  24h Urine protein (Mean): 236.66
[4]; [14]
  24h Urine protein (Mean): 161.15
[4]; [15]
  24h Urine protein (Mean): 248.4
[4]; [16]
  Difference 24h Urine protein: -133.6
[4]; [17]
  Difference 24h Urine protein: -268.75
[4]; [18]
  Difference 24h Urine protein: -239.6
[4]; [19]
  24h Urine protein (Mean): 211.25
[4]; [20]
  24h Urine protein (Mean): 289.2
[4]; [21]
  24h Urine protein (Mean): 626
[4]; [22]
  Difference 24h Urine protein: 53.73
[4]; [23]
  Difference 24h Urine protein: 101.47
[4]; [24]
  Difference 24h Urine protein: 254.2
[4]; at the end of 1 month (V3 vs V2), 5mg of lisinopril twice daily
  reduced proteinuria in % of the patients: 42%
[4]; at the end of 3 month (V4 vs V2), 5mg of lisinopril twice daily
  reduced proteinuria in % of the patients: 40%
[4]; at the end of 6 month (V5 vs V2), 5mg of lisinopril twice daily
  reduced proteinuria in % of the patients: 50%
